Molecules are shown by their SMILES. A value given as a limit tells only on which side of the number the result lay.

Our source for the Emax, EC1.5 and EC1.5 (concentration giving 1.5-fold activation) values is patent US9556201B2, “Bicyclic pyridines and analogs as sirtuin modulators” (GLAXOSMITHKLINE LLC, priority 2009, dated 2017).

The target in this experiment is T1, SIRT1 (Homo sapiens, UniProt Q96EB6).
T1 sequence (Q96EB6 1-747): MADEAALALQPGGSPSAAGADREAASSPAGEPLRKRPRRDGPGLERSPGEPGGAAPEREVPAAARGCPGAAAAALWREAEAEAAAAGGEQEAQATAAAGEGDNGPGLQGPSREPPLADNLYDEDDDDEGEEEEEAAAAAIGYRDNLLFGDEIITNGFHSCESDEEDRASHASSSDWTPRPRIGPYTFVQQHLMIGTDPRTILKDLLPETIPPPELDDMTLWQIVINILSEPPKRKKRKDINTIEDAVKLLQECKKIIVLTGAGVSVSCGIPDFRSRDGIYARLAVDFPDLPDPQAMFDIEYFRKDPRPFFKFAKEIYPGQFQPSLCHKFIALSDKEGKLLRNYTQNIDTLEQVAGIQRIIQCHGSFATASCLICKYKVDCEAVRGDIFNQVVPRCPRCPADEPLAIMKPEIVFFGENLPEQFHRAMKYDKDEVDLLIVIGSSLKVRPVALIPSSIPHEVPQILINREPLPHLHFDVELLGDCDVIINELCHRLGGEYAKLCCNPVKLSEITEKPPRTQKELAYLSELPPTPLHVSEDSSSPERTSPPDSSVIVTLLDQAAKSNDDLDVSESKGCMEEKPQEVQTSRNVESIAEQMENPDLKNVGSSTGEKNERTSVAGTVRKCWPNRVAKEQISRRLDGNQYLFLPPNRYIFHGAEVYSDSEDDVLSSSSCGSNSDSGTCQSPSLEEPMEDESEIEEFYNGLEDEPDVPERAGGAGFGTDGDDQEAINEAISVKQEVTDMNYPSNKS
The experiment can be described thus: Mass spectrometry based assay to identify modulators of SIRT1 activity (deacetylation of p53-based acetylated peptide substrate). Format: biochemical. Conditions: for Emax: 25 min, read-out: % FOLD ACT. (percent maximum fold activation); for Emax / EC1.5: SIRT1 activation. From the text: A mass spectrometry based assay was used to identify modulators of SIRT1 activity. The mass spectrometry based assay utilizes a peptide having 20 amino acid residues as follows: Ac-EE-K(biotin)-GQSTSSHSK(Ac)NleSTEG-K(5TMR)-EE-NH2 (SEQ ID NO: 1) wherein K(Ac) is an acetylated lysine residue and Nle is a norleucine. The peptide is labeled with the fluorophore 5TMR (excitation 540 nm/emission 580 nm) at the C-terminus. The sequence of the peptide substrate is based on p53 with several modifications. In addition, the methionine residue naturally present in the sequence was replaced with the norleucine because the methionine may be susceptible to oxidation during synthesis and purification.
The mass spectrometry assay is conducted as follows: […] peptide substrate and 120 μM βNAD^+ is incubated with 10 nM SIRT1 for 25 minutes at 25° C. in a reaction buffer (50 mM Tris-acetate pH 8, 137 mM NaCl, 2.7 mM KCl, 1 mM MgCl2, 5 mM DTT, 0.05% BSA). Test compounds may be added to the reaction as described above. The SirT1 gene is cloned into a T7-promoter containing vector and transformed into BL21(DE3). After the 25 minute incubation with SIRT1, 10 μL of 10% formic acid is added to stop the reaction. Reactions are sealed and frozen for later mass spec analysis. Determination of the mass of the substrate peptide allows for precise determination of the degree of acetylation (i.e. starting material) as compared to deacetylated peptide (product).
A control for inhibition of sirtuin activity is conducted by adding 1 μL of 500 mM nicotinamide as a negative control at the start of the reaction (e.g., permits determination of maximum sirtuin inhibition). A control for activation of sirtuin activity is conducted using 10 nM of sirtuin protein, with 1 μL of DMSO in place of compound, to determine the amount of deacetylation of the substrate at a given timepoint within the linear range of the assay. This timepoint is the same as that used for test compounds and, within the linear range, the endpoint represents a change in velocity.
For the above assay, SIRT1 protein was expressed and purified as follows. The SirT1 gene was cloned into a T7-promoter containing vector and transformed into BL21(DE3). The protein was expressed by induction with 1 mM IPTG as an N-terminal His-tag fusion protein at 18° C. overnight and harvested at 30,000×g. Cells were lysed with lysozyme in lysis buffer (50 mM Tris-HCl, 2 mM Tris[2-carboxyethyl]phosphine (TCEP), 10 μM ZnCl2, 200 mM NaCl) and further treated with sonication for 10 min for complete lysis. The protein was purified over a Ni-NTA column (Amersham) and fractions containing pure protein were pooled, concentrated and run over a sizing column (Sephadex S200 26/60 global). The peak containing soluble protein was collected and run on an Ion-exchange column (MonoQ). Gradient elution (200 mM-500 mM NaCl) yielded pure protein. This protein was concentrated and dialyzed against dialysis buffer (20 mM Tris-HCl, 2 mM TCEP) overnight. The protein was aliquoted and frozen at −80° C. until further use.

As to `CN(C)Cc1cccc(-c2ccc3c(n2)N(C(=O)Nc2cccnc2)CC(C)(C)O3)c1` [Compound 677, 6-(3-((dimethylamino)methyl)phenyl)-2,2-dimethyl-N-(pyridin-3-yl)-2H-pyrido[3,2-b][1,4]oxazine-4(3H)-carboxamide], the Emax is over 200% and the EC1.5 entry was “B (EC1.5 1-25 μM)”.

For `O=C(Nc1ccncc1)N1CCCOc2ccc(-c3cccc(C(F)(F)F)c3)nc21` [Compound 558, N-(pyridin-4-yl)-7-(3-(trifluoromethyl)phenyl)-3,4-dihydropyrido[3,2-b][1,4]oxazepine-5(2H)-carboxamide], the Emax is over 200% and the EC1.5 entry is given as “B (EC1.5 1-25 μM)”.

Consider `O=C(Nc1ccncn1)N1CCCCc2ccc(-c3cccc(C(F)(F)F)c3)nc21` [Compound 815], for which the EC1.5 (concentration giving 1.5-fold activation) lay within 1 to 25 µM and the Emax is over 200%.

`O=C(Nc1ccnc(OC[C@@H](O)CO)n1)N1CCOc2ccc(-c3cccc(C(F)(F)F)c3)nc21` [Compound 732]: the EC1.5 (concentration giving 1.5-fold activation) was over 25 µM and the Emax is at most 200%.

In the case of `Cc1cc(OCC(O)CO)nc(NC(=O)N2CCC(C)(C)c3ccc(-c4cccc(C(F)(F)F)c4)nc32)n1` (stereo not drawn) [Compound 844], the EC1.5 (concentration giving 1.5-fold activation) lay within 1 to 25 µM and the Emax is over 200%.

As to `Cc1nn(C)c(C)c1NC(=O)N1CCCOc2ccc(-c3cccc(Cl)c3)nc21` [Compound 879], the EC1.5 (concentration giving 1.5-fold activation) was over 25 µM and the Emax is at most 200%.

Consider `Cc1cc(NC(=O)N2CCCOc3ccc(-c4cccc(Cl)c4)nc32)ncc1F` [Compound 863], for which the EC1.5 (concentration giving 1.5-fold activation) lay in the range of 1 to 25 µM and the Emax was at most 200%.

With `O=C(Nc1ccncc1)N1CCCCc2ccc(-c3cccc(Cl)c3)nc21` [Compound 728, 2-(3-chlorophenyl)-N-(pyridin-4-yl)-7,8-dihydro-5H-pyrido[2,3-b]azepine-9(6H)-carboxamide], the EC1.5 (concentration giving 1.5-fold activation) was in the range of 1 to 25 µM and the Emax is over 200%.

On to `CC1(C)CCN(C(=O)Nc2cc(OCC(O)CO)ccn2)c2nc(-c3cccc(C(F)(F)F)c3)ccc21` (stereo not drawn) [Compound 846], for which the EC1.5 (concentration giving 1.5-fold activation) was under 1 µM and the Emax was over 200%.

Take `CC1(C)CCN(C(=O)Nc2ccc(F)cn2)c2nc(-c3cccc(C(F)(F)F)c3)ccc21` [Compound 843]: the EC1.5 (concentration giving 1.5-fold activation) was 1 to 25 µM and the Emax was at most 200%.

As to `CCN1CCCN(C(=O)Nc2cccc(C)n2)c2nc(-c3cccc(Cl)c3)ccc21` [Compound 797], the EC1.5 (concentration giving 1.5-fold activation) is over 25 µM and the Emax was at most 200%.

For `Cc1cc(-c2cccc(Cl)c2)nc2c1OCCN2C(=O)Nc1ccncc1F` [Compound 687], the Emax is over 200% and the EC1.5 result is on record as “A (EC1.5<1.0 μM)”.

`CC1CCN(C(=O)Nc2ccccn2)c2nc(-c3cccc(C(F)(F)F)c3)ccc21` (stereo not drawn) [Compound 785, 4-methyl-N-(pyridin-2-yl)-7-(3-(trifluoromethyl)phenyl)-3,4-dihydro-1,8-naphthyridine-1(2H)-carboxamide]: the EC1.5 (concentration giving 1.5-fold activation) was under 1 µM and the Emax was over 200%.

With `Cc1cnccc1NC(=O)N1CCOc2ccc(-c3cccc(C(F)(F)F)c3)nc21` [Compound 564], the Emax is at most 200% and the EC1.5 entry is given as “B (EC1.5 1-25 μM)”.

In the case of `CC1(C)CCN(C(=O)Nc2ccccn2)c2nc(-c3cccc(Cl)c3)ccc2C1=O` [Compound 783], the EC1.5 (concentration giving 1.5-fold activation) was over 25 µM and the Emax was at most 200%.

Regarding `O=C(Nc1ccncc1)N1CCOc2cnc(-c3cccc(N4CCOCC4)c3)nc21` [Compound 721], the EC1.5 (concentration giving 1.5-fold activation) is 1 to 25 µM and the Emax is over 200%.

Consider `Cc1cc(OCC(O)CO)nc(NC(=O)N2CCCOc3ccc(-c4cccc(Cl)c4)nc32)n1` (stereo not drawn) [Compound 859], for which the EC1.5 (concentration giving 1.5-fold activation) was 1 to 25 µM and the Emax is over 200%.

Consider `CCN1CCCN(C(=O)Nc2cccc(OC[C@@H](O)CO)n2)c2nc(-c3cccc(Cl)c3)ccc21` [Compound 796], for which the EC1.5 (concentration giving 1.5-fold activation) was in the range of 1 to 25 µM and the Emax was over 200%.

`O=C1CCN(C(=O)Nc2ccncc2)c2nc(-c3cccc(C(F)(F)F)c3)ccc21` [Compound 719, 4-oxo-N-(pyridin-4-yl)-7-(3-(trifluoromethyl)phenyl)-3,4-dihydro-1,8-naphthyridine-1(2H)-carboxamide]: the EC1.5 (concentration giving 1.5-fold activation) lay in the range of 1 to 25 µM and the Emax was over 200%.

Regarding `O=C1CCCN(C(=O)Nc2ccncc2F)c2nc(-c3cccc(Cl)c3)ccc21` [Compound 767], the EC1.5 (concentration giving 1.5-fold activation) lay in the range of 1 to 25 µM and the Emax is at most 200%.

Regarding `O=C(Nc1cnccn1)N1CCCOc2ccc(-c3cccc(Cl)c3)nc21` [Compound 866], the EC1.5 (concentration giving 1.5-fold activation) was 1 to 25 µM and the Emax is over 200%.

For the molecule `O=C(Nc1ccccn1)N1CCC(F)(F)c2ccc(-c3cccc(C(F)(F)F)c3)nc21` [Compound 814, 4,4-difluoro-N-(pyridin-2-yl)-7-(3-(trifluoromethyl)phenyl)-3,4-dihydro-1,8-naphthyridine-1(2H)-carboxamide], the EC1.5 (concentration giving 1.5-fold activation) was over 25 µM and the Emax is at most 200%.

As to `Cc1csc(NC(=O)N2CCCOc3ccc(-c4cccc(F)c4)nc32)n1` [Compound 583], the Emax is over 200% and the EC1.5 result is “B (EC1.5 1-25 μM)”.

For the molecule `CC1CCN(C(=O)Nc2ncccc2F)c2nc(-c3cccc(C(F)(F)F)c3)ccc21` (stereo not drawn) [Compound 803], the EC1.5 (concentration giving 1.5-fold activation) fell in the range of 1 to 25 µM and the Emax is over 200%.

In the case of `Cc1cc(C)nc(NC(=O)N2CCOc3cnc(-c4cccc(C(F)(F)F)c4)nc32)c1` [Compound 712], the EC1.5 (concentration giving 1.5-fold activation) is over 25 µM and the Emax is at most 200%.

As for `O=C(Nc1ccnc(OC[C@H](O)CO)n1)N1CCOc2ccc(-c3cccc(C(F)(F)F)c3)nc21` [Compound 731], the EC1.5 (concentration giving 1.5-fold activation) is over 25 µM and the Emax is at most 200%.

For `O=C(Nc1cccc(OC[C@H](O)CO)n1)N1CCCc2ccc(-c3ccc4c(c3)CCO4)nc21` [Compound 702], the EC1.5 (concentration giving 1.5-fold activation) was under 1 µM and the Emax was over 200%.

As for `O=C1CCCN(C(=O)Nc2ccccn2)c2nc(-c3cccc(C(F)(F)F)c3)ccc21` [Compound 819], the EC1.5 (concentration giving 1.5-fold activation) was under 1 µM and the Emax is over 200%.

For `CN1C(=O)CN(C(=O)Nc2nccs2)c2nc(-c3cccc(C(F)(F)F)c3)ccc21` [Compound 520, 1-methyl-2-oxo-N-(thiazol-2-yl)-6-(3-(trifluoromethyl)phenyl)-2,3-dihydropyrido[2,3-b]pyrazine-4(1H)-carboxamide], the Emax was at most 200% and the EC1.5 result was “B (EC1.5 1-25 μM)”.

Regarding `Cc1cc(C)c(NC(=O)N2CCOc3ccc(-c4cccc(C(F)(F)F)c4)nc32)cn1` [Compound 553], the Emax is at most 200% and the EC1.5 result is “B (EC1.5 1-25 μM)”.
